We go through 5 compounds from ChEMBL document CHEMBL5046291, “Evodiamine-Inspired Topoisomerase-Histone Deacetylase Dual Inhibitors: Novel Orally Active Antitumor Agents for Leukemia Therapy” (J Med Chem, 2022).

The source made the active and inactive calls. The calls are words filed in the database; no cut-off is given here.

The target of the first test is T1, DNA topoisomerase 1 (Homo sapiens) (UniProt P11387).
T1 sequence (whole entry): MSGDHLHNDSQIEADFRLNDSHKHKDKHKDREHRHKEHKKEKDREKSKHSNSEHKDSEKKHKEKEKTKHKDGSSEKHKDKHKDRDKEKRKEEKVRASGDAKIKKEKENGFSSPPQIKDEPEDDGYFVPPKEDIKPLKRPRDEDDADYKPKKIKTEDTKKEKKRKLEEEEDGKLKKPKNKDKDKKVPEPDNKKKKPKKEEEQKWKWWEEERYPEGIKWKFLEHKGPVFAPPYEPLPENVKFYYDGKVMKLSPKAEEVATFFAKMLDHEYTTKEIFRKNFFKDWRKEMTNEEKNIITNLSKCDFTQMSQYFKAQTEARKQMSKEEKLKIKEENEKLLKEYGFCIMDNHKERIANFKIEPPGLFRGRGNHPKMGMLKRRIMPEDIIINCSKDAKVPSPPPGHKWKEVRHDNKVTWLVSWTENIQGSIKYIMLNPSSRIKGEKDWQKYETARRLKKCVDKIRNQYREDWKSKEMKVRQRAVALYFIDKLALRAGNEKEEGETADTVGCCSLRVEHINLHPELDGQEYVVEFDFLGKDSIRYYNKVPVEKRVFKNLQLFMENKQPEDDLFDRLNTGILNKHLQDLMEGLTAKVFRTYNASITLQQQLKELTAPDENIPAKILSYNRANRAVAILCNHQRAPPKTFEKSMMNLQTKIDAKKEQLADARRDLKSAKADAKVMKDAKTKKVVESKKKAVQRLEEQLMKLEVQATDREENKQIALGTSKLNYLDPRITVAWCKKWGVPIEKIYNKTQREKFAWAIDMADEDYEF
The experiment in a line: Inhibition of recombinant Top1 (unknown origin) assessed as inhibition of relaxation of supercoiled pBR322 plasmid DNA at 100 uM incubated for 15 mins by ethidium bromide staining based agarose gel electrophoresis analysis.
Details: not given
Consider `CN1c2ccc(F)cc2C(=O)N2CCc3c([nH]c4ccc(OCc5ccccc5C(=O)Nc5ccccc5N)cc34)C21` (centres undefined), for which the inhibition entry was “inactive”.

Regarding `CN1c2ccc(F)cc2C(=O)N2CCc3c([nH]c4ccc(OCCCCCCC(=O)Nc5ccccc5N)cc34)C21` (centres undefined), the inhibition entry is “Active”.

Take `CN1c2ccc(F)cc2C(=O)N2CCc3c([nH]c4ccc(OCc5ccc(CC(=O)NO)cc5)cc34)C21` (centres undefined): the inhibition entry is “Active”.

As for `CN1c2ccc(F)cc2C(=O)N2CCc3c([nH]c4ccc(OCCCCCCC(=O)NO)cc34)C21` (centres undefined), the inhibition result is “Active”.

For the next test, the target named is DNA topoisomerase 2-alpha (Homo sapiens) (UniProt P11388). The test can be described thus: Inhibition of recombinant Top2 (unknown origin) assessed as inhibition of relaxation of supercoiled pBR322 plasmid DNA at 50 uM incubated for 15 mins by ethidium bromide staining based agarose gel electrophoresis analysis.
DNA topoisomerase 2-alpha (Homo sapiens), sequence (P11388 whole entry): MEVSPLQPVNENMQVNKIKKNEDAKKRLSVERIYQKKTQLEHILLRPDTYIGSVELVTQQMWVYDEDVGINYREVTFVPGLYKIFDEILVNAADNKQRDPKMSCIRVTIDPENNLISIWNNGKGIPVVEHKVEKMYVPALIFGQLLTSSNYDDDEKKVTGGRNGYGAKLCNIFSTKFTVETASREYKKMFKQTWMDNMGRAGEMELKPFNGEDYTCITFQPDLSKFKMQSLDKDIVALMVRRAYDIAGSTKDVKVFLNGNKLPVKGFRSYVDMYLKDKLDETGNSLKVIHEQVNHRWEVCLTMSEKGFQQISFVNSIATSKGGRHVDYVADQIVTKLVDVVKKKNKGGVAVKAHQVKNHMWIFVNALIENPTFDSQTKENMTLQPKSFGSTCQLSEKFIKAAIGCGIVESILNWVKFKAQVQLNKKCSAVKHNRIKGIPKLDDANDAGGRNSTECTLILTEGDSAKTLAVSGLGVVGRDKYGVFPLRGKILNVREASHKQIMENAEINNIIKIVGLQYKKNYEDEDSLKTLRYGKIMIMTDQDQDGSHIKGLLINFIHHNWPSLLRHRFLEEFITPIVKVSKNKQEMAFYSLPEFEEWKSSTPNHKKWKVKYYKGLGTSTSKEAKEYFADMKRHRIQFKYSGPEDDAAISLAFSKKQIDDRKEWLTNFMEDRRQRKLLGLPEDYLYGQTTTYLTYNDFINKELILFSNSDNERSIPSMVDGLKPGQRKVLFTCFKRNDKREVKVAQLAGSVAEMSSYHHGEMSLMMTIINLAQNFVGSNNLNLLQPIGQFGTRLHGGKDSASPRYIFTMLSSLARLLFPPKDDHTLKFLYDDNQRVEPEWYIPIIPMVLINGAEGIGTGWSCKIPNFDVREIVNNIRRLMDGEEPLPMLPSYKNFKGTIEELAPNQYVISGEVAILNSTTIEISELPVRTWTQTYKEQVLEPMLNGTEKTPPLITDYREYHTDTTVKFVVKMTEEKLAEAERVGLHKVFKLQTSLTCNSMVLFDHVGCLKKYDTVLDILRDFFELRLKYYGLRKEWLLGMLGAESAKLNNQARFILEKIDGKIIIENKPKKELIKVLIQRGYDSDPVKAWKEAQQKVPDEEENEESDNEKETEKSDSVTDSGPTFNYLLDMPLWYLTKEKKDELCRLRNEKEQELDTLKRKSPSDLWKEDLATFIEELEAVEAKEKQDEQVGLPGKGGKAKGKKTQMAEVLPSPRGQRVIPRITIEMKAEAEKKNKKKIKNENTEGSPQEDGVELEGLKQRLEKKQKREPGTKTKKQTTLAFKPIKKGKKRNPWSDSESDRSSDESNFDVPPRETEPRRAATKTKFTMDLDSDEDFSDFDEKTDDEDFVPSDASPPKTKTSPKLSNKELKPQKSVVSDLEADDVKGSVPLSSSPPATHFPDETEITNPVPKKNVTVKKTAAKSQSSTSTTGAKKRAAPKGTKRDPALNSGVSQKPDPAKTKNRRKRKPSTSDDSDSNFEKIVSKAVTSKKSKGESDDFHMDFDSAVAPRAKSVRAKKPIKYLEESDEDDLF
Details: not given
Consider `CN1c2ccc(F)cc2C(=O)N2CCc3c([nH]c4ccc(OCCCCCCC(=O)Nc5ccccc5N)cc34)C21` (centres undefined), for which the inhibition result is “Active”.

On to `CN1c2ccc(F)cc2C(=O)N2CCc3c([nH]c4ccc(OCc5ccc(CC(=O)NO)cc5)cc34)C21` (centres undefined), for which the inhibition entry was “Active”.

With `CN1c2ccc(F)cc2C(=O)N2CCc3c([nH]c4ccc(OCCCCCCC(=O)NO)cc34)C21` (centres undefined), the inhibition result is “Active”.

For another test, the target named is Histone deacetylase 1 (Homo sapiens, UniProt Q13547). The test can be described thus: Inhibition of full-length recombinant human HDAC1 expressed in Baculovirus expression system using Ac-Leu-Gly-Lys(Ac)-AMC as substrate preincubated for 5 mins followed by substrate addition and further incubated for 30 mins by fluorescence based microtiter plate reader assay.
Histone deacetylase 1, sequence (Q13547 whole entry): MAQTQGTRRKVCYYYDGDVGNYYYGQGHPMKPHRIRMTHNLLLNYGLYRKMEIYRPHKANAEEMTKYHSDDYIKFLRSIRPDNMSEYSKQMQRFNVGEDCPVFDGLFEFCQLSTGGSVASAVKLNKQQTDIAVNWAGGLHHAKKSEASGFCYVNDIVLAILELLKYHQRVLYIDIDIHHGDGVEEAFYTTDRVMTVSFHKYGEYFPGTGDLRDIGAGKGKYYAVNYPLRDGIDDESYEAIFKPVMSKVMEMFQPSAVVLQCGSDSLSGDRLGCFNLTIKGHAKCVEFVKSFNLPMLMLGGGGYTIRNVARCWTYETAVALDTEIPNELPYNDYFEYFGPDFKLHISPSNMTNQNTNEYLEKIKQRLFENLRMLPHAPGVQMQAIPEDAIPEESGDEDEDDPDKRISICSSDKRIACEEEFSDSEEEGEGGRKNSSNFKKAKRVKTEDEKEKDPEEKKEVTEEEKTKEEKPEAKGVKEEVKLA
Details: not given
As to `CN1c2ccc(F)cc2C(=O)N2CCc3c([nH]c4ccc(OCc5ccccc5C(=O)Nc5ccccc5N)cc34)C21` (centres undefined), the IC50 (in general, the concentration needed to halve the response being measured) was determined as 1900 nM.

Turning to `CN1c2ccc(F)cc2C(=O)N2CCc3c([nH]c4ccc(OCCCCCCC(=O)Nc5ccccc5N)cc34)C21` (centres undefined), the IC50 turned out to be 25 nM.

For the compound `CN1c2ccc(F)cc2C(=O)N2CCc3c([nH]c4ccc(OCc5ccc(CC(=O)NO)cc5)cc34)C21` (centres undefined), the IC50 is 360 nM.

Take `CN1c2ccc(F)cc2C(=O)N2CCc3c([nH]c4ccc(OCCCCCCC(=O)NO)cc34)C21` (centres undefined): the IC50 was 3 nM.

Another test has as its system MCF7. The experiment in a line: Antiproliferative activity against human MCF7 cells assessed as cell growth inhibition incubated for 8 hrs by CCK8 assay. Type of test: functional, cell-based. The settings on record: MCF7, 8 h. (Tetrazolium dyes change colour on reduction, which living cells bring about.)
For the compound `CC[C@@]1(O)C(=O)OCc2c1cc1n(c2=O)Cc2cc3c(CN(C)C)c(O)ccc3nc2-1` [TOPOTECAN], the IC50 stood at 140 nM.

With `CN1c2ccc(F)cc2C(=O)N2CCc3c([nH]c4ccc(OCc5ccccc5C(=O)Nc5ccccc5N)cc34)C21` (centres undefined), the IC50 is 420 nM.

In the case of `CN1c2ccc(F)cc2C(=O)N2CCc3c([nH]c4ccc(OCCCCCCC(=O)Nc5ccccc5N)cc34)C21` (centres undefined), the IC50 is 830 nM.

For the compound `CN1c2ccc(F)cc2C(=O)N2CCc3c([nH]c4ccc(OCc5ccc(CC(=O)NO)cc5)cc34)C21` (centres undefined), the IC50 is more than 2000 nM.

For the compound `CN1c2ccc(F)cc2C(=O)N2CCc3c([nH]c4ccc(OCCCCCCC(=O)NO)cc34)C21` (centres undefined), the IC50 was found to be 210 nM.

A further test relates to A549. The experiment in a line: Antiproliferative activity against human A549 cells assessed as cell growth inhibition incubated for 8 hrs by CCK8 assay. Type of test: functional, cell-based. The settings on record: A549, 8 h.
Consider `CC[C@@]1(O)C(=O)OCc2c1cc1n(c2=O)Cc2cc3c(CN(C)C)c(O)ccc3nc2-1` [TOPOTECAN], for which the IC50 was found to be 8300 nM.

Take `CN1c2ccc(F)cc2C(=O)N2CCc3c([nH]c4ccc(OCc5ccccc5C(=O)Nc5ccccc5N)cc34)C21` (centres undefined): the IC50 came to 830 nM.

Turning to `CN1c2ccc(F)cc2C(=O)N2CCc3c([nH]c4ccc(OCCCCCCC(=O)Nc5ccccc5N)cc34)C21` (centres undefined), the IC50 stood at 810 nM.

As to `CN1c2ccc(F)cc2C(=O)N2CCc3c([nH]c4ccc(OCc5ccc(CC(=O)NO)cc5)cc34)C21` (centres undefined), the IC50 was more than 2000 nM.

As to `CN1c2ccc(F)cc2C(=O)N2CCc3c([nH]c4ccc(OCCCCCCC(=O)NO)cc34)C21` (centres undefined), the IC50 was found to be 630 nM.

The next test deals with HCT-116. The experiment in a line: Antiproliferative activity against human HCT-116 cells assessed as cell growth inhibition incubated for 8 hrs by CCK8 assay. Type of test: functional, cell-based. Particulars: HCT-116, 8 h.
In the case of `CC[C@@]1(O)C(=O)OCc2c1cc1n(c2=O)Cc2cc3c(CN(C)C)c(O)ccc3nc2-1` [TOPOTECAN], the IC50 is 970 nM.

Regarding `CN1c2ccc(F)cc2C(=O)N2CCc3c([nH]c4ccc(OCc5ccccc5C(=O)Nc5ccccc5N)cc34)C21` (centres undefined), the IC50 was determined as 220 nM.

Take `CN1c2ccc(F)cc2C(=O)N2CCc3c([nH]c4ccc(OCCCCCCC(=O)Nc5ccccc5N)cc34)C21` (centres undefined): the IC50 is more than 2000 nM.

On to `CN1c2ccc(F)cc2C(=O)N2CCc3c([nH]c4ccc(OCc5ccc(CC(=O)NO)cc5)cc34)C21` (centres undefined), for which the IC50 is more than 2000 nM.

Take `CN1c2ccc(F)cc2C(=O)N2CCc3c([nH]c4ccc(OCCCCCCC(=O)NO)cc34)C21` (centres undefined): the IC50 turned out to be 830 nM.

Another test deals with HepG2. The test can be described thus: Antiproliferative activity against human HepG2 cells assessed as cell growth inhibition incubated for 8 hrs by CCK8 assay. The settings on record: HepG2, 8 h. In kind it is functional, cell-based.
Turning to `CC[C@@]1(O)C(=O)OCc2c1cc1n(c2=O)Cc2cc3c(CN(C)C)c(O)ccc3nc2-1` [TOPOTECAN], the IC50 worked out at 3300 nM.

For `CN1c2ccc(F)cc2C(=O)N2CCc3c([nH]c4ccc(OCc5ccccc5C(=O)Nc5ccccc5N)cc34)C21` (centres undefined), the IC50 is 440 nM.

As for `CN1c2ccc(F)cc2C(=O)N2CCc3c([nH]c4ccc(OCCCCCCC(=O)Nc5ccccc5N)cc34)C21` (centres undefined), the IC50 was found to be 1260 nM.

In the case of `CN1c2ccc(F)cc2C(=O)N2CCc3c([nH]c4ccc(OCc5ccc(CC(=O)NO)cc5)cc34)C21` (centres undefined), the IC50 was 520 nM.

Take `CN1c2ccc(F)cc2C(=O)N2CCc3c([nH]c4ccc(OCCCCCCC(=O)NO)cc34)C21` (centres undefined): the IC50 is 200 nM.

For a further test, the system named is K562. The experiment in a line: Antiproliferative activity against human K562 cells assessed as cell growth inhibition incubated for 8 hrs by CCK8 assay. Particulars: K562, 8 h. In kind it is functional, cell-based.
Consider `CC[C@@]1(O)C(=O)OCc2c1cc1n(c2=O)Cc2cc3c(CN(C)C)c(O)ccc3nc2-1` [TOPOTECAN], for which the IC50 is 910 nM.

Regarding `CN1c2ccc(F)cc2C(=O)N2CCc3c([nH]c4ccc(OCc5ccccc5C(=O)Nc5ccccc5N)cc34)C21` (centres undefined), the IC50 is 920 nM.

On to `CN1c2ccc(F)cc2C(=O)N2CCc3c([nH]c4ccc(OCCCCCCC(=O)Nc5ccccc5N)cc34)C21` (centres undefined), for which the IC50 turned out to be 1380 nM.

Regarding `CN1c2ccc(F)cc2C(=O)N2CCc3c([nH]c4ccc(OCc5ccc(CC(=O)NO)cc5)cc34)C21` (centres undefined), the IC50 is 180 nM.

Turning to `CN1c2ccc(F)cc2C(=O)N2CCc3c([nH]c4ccc(OCCCCCCC(=O)NO)cc34)C21` (centres undefined), the IC50 was more than 2000 nM.

For the next test, the system named is HEL. The test can be described thus: Antiproliferative activity against HEL cells assessed as cell growth inhibition incubated for 8 hrs by CCK8 assay. Type of test: functional, cell-based. Particulars: Homo sapiens.
With `CC[C@@]1(O)C(=O)OCc2c1cc1n(c2=O)Cc2cc3c(CN(C)C)c(O)ccc3nc2-1` [TOPOTECAN], the IC50 was found to be 26000 nM.

As to `CN1c2ccc(F)cc2C(=O)N2CCc3c([nH]c4ccc(OCc5ccccc5C(=O)Nc5ccccc5N)cc34)C21` (centres undefined), the IC50 was determined as 820 nM.

Consider `CN1c2ccc(F)cc2C(=O)N2CCc3c([nH]c4ccc(OCCCCCCC(=O)Nc5ccccc5N)cc34)C21` (centres undefined), for which the IC50 is 1850 nM.

Turning to `CN1c2ccc(F)cc2C(=O)N2CCc3c([nH]c4ccc(OCc5ccc(CC(=O)NO)cc5)cc34)C21` (centres undefined), the IC50 turned out to be 100 nM.

As for `CN1c2ccc(F)cc2C(=O)N2CCc3c([nH]c4ccc(OCCCCCCC(=O)NO)cc34)C21` (centres undefined), the IC50 is more than 2000 nM.

In a further test the target is DNA topoisomerase 2-alpha (Homo sapiens) (UniProt P11388). The test can be described thus: Inhibition of recombinant Top2 (unknown origin) assessed as inhibition of relaxation of supercoiled pBR322 plasmid DNA at 100 uM incubated for 15 mins by ethidium bromide staining based agarose gel electrophoresis analysis.
Details: not given
Regarding `CN1c2ccc(F)cc2C(=O)N2CCc3c([nH]c4ccc(OCCCCCCC(=O)Nc5ccccc5N)cc34)C21` (centres undefined), the inhibition result is “Active”.

In the case of `CN1c2ccc(F)cc2C(=O)N2CCc3c([nH]c4ccc(OCc5ccc(CC(=O)NO)cc5)cc34)C21` (centres undefined), the inhibition result was “Active”.

Turning to `CN1c2ccc(F)cc2C(=O)N2CCc3c([nH]c4ccc(OCCCCCCC(=O)NO)cc34)C21` (centres undefined), the inhibition entry is “Active”.
